Results taken from patent US20250382298A1, “NITROGEN-CONTAINING COMPOUND AND USE THEREOF” (SUZHOU GENHOUSE BIO CO., LTD., priority 2022, published 2025).
pEC50, pIC50: −log10 of the molar value.

Legend:
HT-29 cells [1] = assay: Mitotic index analysis, pH3 expression in HT-29 cells; assay type: cell-based, human; conditions: Homo sapiens, 24 h treatment
Protocol: (§1) HCT-116 and HT-29 cells at the logarithmic growth phase were taken, digested with a cell lysis buffer (trypsin), centrifuged, counted, and seeded into a 96-well plate at an appropriate cell density (20000 cells/well), with 100 μL per well. The surrounding wells were filled with an appropriate amount of PBS to prevent water evaporation. The next day, the cells were treated with the compounds at different concentrations (with a starting concentration of 10 μM, 3-fold diluted to obtain 9 concentration gradients). After 24 h, the medium was aspirated, and the cells were washed twice with 100 μL of PBS. The cells were then fixed with 4% paraformaldehyde and incubated at room temperature for 15 min. The fixative solution was discarded, and the cells were washed with PBS. Then, 150 μL of specialized blocking solution (containing 1% Triton-100) was added to each well for blocking at room temperature for 2 h, and the plate was washed with PBS to remove excess blocking solution. Anti-phistone H3 (pH3) was diluted at a ratio of 1:1000 with a blocking solution containing 0.033% Triton-100, and a blank control group was set up. Then, incubation was performed at 4° C. overnight. The next day, the plate was washed twice with 1×PBST. Anti-rabbit-IgG (H+L) (CST) and DRAQ5 (Thermofisher) were each diluted at an appropriate ratio with a blocking solution containing 0.033% Triton-100 (secondary antibody: 1:2000; DRAQ5: 1:10000). Then, incubation was performed at room temperature for 2 h. The plate was washed twice with 1×PBST and once with PBS. Fluorescence signals at 700 nm and 800 nm were detected using a Li—COR Odyssey two-color near-infrared laser imager. Calculation was performed as follows: pH3 expression (%)=(Cmpd dose/DMSO control)×100. Cmpd dose is the value of the drug treatment group, and DMSO control is the value of the DMSO control group. The EC50 values were determined by fitting using the GraphPad Prism 7.0 software.

BT-549 cells = assay: Detection of cell proliferation activity by CCK8 method (BT-549); assay type: cell-based; conditions: Homo sapiens, CCK8, 96 h
Source text: (§2) This assay can be used to examine the potency of compounds in inhibiting the proliferation of tumor cells (OVCAR3, HT-29, BT-549, HCT-116). A lower IC50 value indicates high potency of the compound as a KIF18A inhibitor in the following assay setup,
(§3) McCoy's 5A medium purchased from Sangon Biotech; CCK8 kit purchased from Beyotime; OVCAR3, HT-29, HCT-116, and BT-549 cells purchased from Shanghai Fuheng Biotechnology Co., Ltd.; multimode microplate reader (Thermo).
(§4) Cells at the logarithmic growth phase were taken, digested with a cell lysis buffer (trypsin), centrifuged, counted, and seeded into a 96-well plate at an appropriate cell density (BT549: 1500 cells/well in 1640 medium. HT-29 and HCT-116: 2000 cells/well in McCoy's 5A medium), with 180 μL per well, for a total of 60 wells. The surrounding wells were filled with an equal amount of PBS to prevent water evaporation from the edge wells. The next day after cell plating, the test compounds at different concentration gradients (with an initial final concentration of 10 μM, diluted in a 1:5 gradient to obtain 9 concentration gradients) were added to the wells. Three replicate wells were set up for each concentration point, and a corresponding DMSO negative control group was also set up. Detection: After 96 h of drug treatment, the test cell culture plate was removed from the incubator. All the liquid in the 96-well plate was aspirated, and 100 μL of medium containing 10% CCK8 solution was added to each well. The plate was then incubated at 37° C. for 2 h (the OD450 of the DMSO group reached 1.5 or more), and the absorbance at 450 nm was measured using a microplate reader
(§5) After the background value was subtracted from the measurement for each well, the inhibition rate was calculated. Inhibition Rate (%)=(1−Sample/Vehicle)×100. Sample is the luminescence value of the drug treatment group, and Vehicle is the luminescence value of the DMSO control group. A sigmoidal dose-survival rate curve was plotted using a non-linear regression model in the GraphPad Prism 7.0 software, and the IC50 values were calculated.

OVCAR3 cells = assay: Detection of cell proliferation activity by CCK8 method (OVCAR3); assay type: cell-based; conditions: Homo sapiens, OVCAR-3, CCK8, 96 h
Source text: as §2, §3, §4, §5

HCT-116 cells [2] = assay: Detection of cell proliferation activity by CCK8 method (HCT-116); assay type: cell-based; conditions: Homo sapiens, CCK8, 96 h
Source text: as §2, §3, §4, §5

HT-29 cells [3] = assay: Detection of cell proliferation activity by CCK8 method (HT-29); assay type: cell-based, human; conditions: Homo sapiens, CCK8, 96 h
Source text: as §2, §3, §4, §5

HCT-116 cells [4] = assay: Mitotic index analysis, pH3 expression in HCT-116 cells; assay type: cell-based; conditions: Homo sapiens, 24 h treatment
Protocol: as §1

SMILES	pEC50 (HT-29 cells [1])	pIC50 (BT-549 cells)	pIC50 (OVCAR3 cells)	pIC50 (HCT-116 cells [2])	pIC50 (HT-29 cells [3])	pEC50 (HCT-116 cells [4])
CC1(C)C2CN(c3cc(NS(=O)(=O)CCO)ccc3C(=O)Nc3cn4ccnc4c(N4CCC(F)(F)CC4)n3)CC21 (stereo not drawn) [Compound 20]	6.36	6.13	6.93	< 5.00	6.29	< 5.00
O=C(Nc1cn2c(C(F)(F)F)cnc2c(N2CCC(F)(F)CC2)n1)c1ccc(NS(=O)(=O)CCO)cc1N1CCC2(CC1)CC2 [Compound 35]	–	–	5.73	< 5.00	–	< 5.00
O=C(Nc1cn2cc(C(F)(F)F)nc2c(N2CCC(F)(F)CC2)n1)c1ccc(NS(=O)(=O)CCO)cc1N1CCC2(CC1)CC2 [Compound 36]	–	5.79	6.55	< 5.00	6.28	< 5.00
Cc1cnc2c(N3CCC(F)(F)CC3)nc(NC(=O)c3ccc(NS(=O)(=O)CCO)cc3N3CCC4(CC3)CC4)cn12 [Compound 42]	6.59	6.52	7.08	< 5.00	6.64	< 5.00
O=S(=O)(CCO)Nc1cc(N2CCC3(CC2)CC3)c2c(Nc3cn4ccnc4c(N4CCC(F)(F)CC4)n3)ncnc2c1 [Compound 43]	7.52	7.19	7.63	< 5.00	7.02	< 5.00
Cc1cc(NC(=O)c2ccc(NS(=O)(=O)CCO)cc2N2Cc3ccccc3C2)nc(N2CCC(F)(F)CC2)n1 [Compound 44]	–	5.72	6.13	< 5.00	5.78	< 5.00
CS(=O)(=O)Nc1ccc(C(=O)Nc2cc3ccsc3c(N3CCC(F)(F)CC3)n2)c(N2CCC3(CC2)CC3)c1 [Compound 45]	7.09	6.77	7.27	< 5.00	7.03	< 5.00
CS(=O)(=O)Nc1ccc(C(=O)Nc2cn3c(F)cnc3c(N3CCC(F)(F)CC3)n2)c(N2CCC3(CC2)CC3)c1 [Compound 46]	7.28	7.12	7.46	< 5.00	7.25	< 5.00
O=C(Nc1cc2ccsc2c(N2CCC(F)(F)CC2)n1)c1ccc(NS(=O)(=O)CCO)cc1N1CC2CCC(C2)C1 [Compound 50]	7.50	6.76	7.28	< 5.00	7.26	< 5.00
CS(=O)(=O)Nc1ccc(C(=O)Nc2cn3cncc3c(N3CCC(F)(F)CC3)n2)c(N2CCC3(CC2)CC3)c1 [Compound 58]	6.92	7.04	7.42	< 5.00	7.01	< 5.00
O=C(Nc1cn2cncc2c(N2CCC(F)(F)CC2)n1)c1ccc(NS(=O)(=O)CCO)cc1N1CC2CCC(C2)C1 [Compound 59]	7.31	7.08	7.56	< 5.00	7.09	< 5.00
CS(=O)(=O)Nc1ccc(C(=O)Nc2cn3cncc3c(N3CCC(F)(F)CC3)n2)c(N2CC3CCC(C3)C2)c1 [Compound 60]	6.91	6.62	7.20	< 5.00	6.84	< 5.00
CS(=O)(=O)Nc1ccc(C(=O)Nc2cc3nn[nH]c3c(N3CCC(F)(F)CC3)n2)c(N2CCC3(CC2)CC3)c1 [Compound 68]	7.05	7.04	7.36	< 5.00	6.80	< 5.00
CS(=O)(=O)c1ccc(C(=O)Nc2cn3ccnc3c(N3CCC(F)(F)CC3)n2)c(N2CCC3(CC2)CC3)c1 [Compound 74]	–	6.81	7.32	–	7.08	–

Results, then the compound that gave them:

pEC50 (HT-29 cells [1])	pIC50 (BT-549 cells)	pIC50 (OVCAR3 cells)	pIC50 (HCT-116 cells [2])	pIC50 (HT-29 cells [3])	pEC50 (HCT-116 cells [4])	SMILES
–	7.58	8.00	< 5.00	7.55	< 5.00	O=C(Nc1cc2nccnc2c(N2CCC(F)(F)CC2)n1)c1ccc(NS(=O)(=O)CCO)cc1N1CCC2(CC1)CC2 [Compound 39]
7.91	7.58	7.91	< 5.00	7.77	< 5.00	Cn1ncc2cc(NC(=O)c3ccc(NS(C)(=O)=O)cc3N3CCC4(CC3)CC4)nc(N3CCC(F)(F)CC3)c21 [Compound 48]
7.97	7.26	7.93	< 5.00	7.57	< 5.00	O=C(Nc1cn2ncnc2c(N2CCC(F)(F)CC2)n1)c1ccc(NS(=O)(=O)CCO)cc1N1CC2CCC(C2)C1 [Compound 54]
7.28	7.51	7.63	< 5.00	7.22	< 5.00	CS(=O)(=O)Nc1ccc(C(=O)Nc2cn3cnnc3c(N3CCC(F)(F)CC3)n2)c(N2CCC3(CC2)CC3)c1 [Compound 61]
8.11	7.64	8.22	< 5.00	7.82	< 5.00	O=C(Nc1cc2cc[nH]c2c(N2CCC(F)(F)CC2)n1)c1ccc(NS(=O)(=O)CCO)cc1N1CC2CCC(C2)C1 [Compound 62]
7.99	7.47	8.00	< 5.00	7.81	< 5.00	CS(=O)(=O)Nc1ccc(C(=O)Nc2cc3cc[nH]c3c(N3CCC(F)(F)CC3)n2)c(N2CC3CCC(C3)C2)c1 [Compound 63]
7.57	7.37	7.99	< 5.00	7.26	< 5.00	O=C(Nc1cn2cnnc2c(N2CCC(F)(F)CC2)n1)c1ccc(NS(=O)(=O)CCO)cc1N1CC2CCC(C2)C1 [Compound 64]
7.46	7.05	7.73	< 5.00	7.15	< 5.00	CS(=O)(=O)Nc1ccc(C(=O)Nc2cc3nn[nH]c3c(N3CCC(F)(F)CC3)n2)c(N2CC3CCC(C3)C2)c1 [Compound 66]
7.44	7.21	7.86	< 5.00	7.06	< 5.00	O=C(Nc1cc2nn[nH]c2c(N2CCC(F)(F)CC2)n1)c1ccc(NS(=O)(=O)CCO)cc1N1CC2CCC(C2)C1 [Compound 67]
8.11	7.40	8.30	< 5.00	7.76	< 5.00	O=C(Nc1cc2cn[nH]c2c(N2CCC(F)(F)CC2)n1)c1ccc(NS(=O)(=O)CCO)cc1N1CC2CCC(C2)C1 [Compound 71]
